In publication PMC6911004, “Fragment-based screening identifies molecules targeting the substrate-binding ankyrin repeat domains of tankyrase” (Scientific Reports, 2019):

Tests used:
Type in all cases: binding
TNKS2 ARC5 = biological target: T1, TNKS2 ARC5 (Homo sapiens, UniProt Q9H2K2); test: T2 relaxation-edited ligand-observed NMR assay; conditions: DSF hit validation
T1 construct: followed by TNKS2 ARC5 (1 μL, 100 μM stock); His6-GST; made in house; host or cells: E. coli
From the text: 39 hits from the DSF screen were suitable for follow-up by ligand-observed NMR methods. We re-purchased fragments and performed T2 relaxation-edited (CPMG-edited) and waterLOGSY experiments for each fragment with TNKS2 ARC5. We explored saturation transfer difference (STD) NMR, also using TNKS2 ARC5, but the assay was not sensitive enough to produce a reliable binding signal, likely due to the relatively small size of a single ARC protein (data not shown). High ligand concentrations were required to achieve sufficient signal, which in turn could lead to false-positive hits due to non-specific binding.
Using the relaxation-edited assay, we tested each fragment in three independent measurements (Fig. 2C), unless we obtained two negative results (non-binding) in the first two experiments. […] As a negative NOE for the compound-only sample could indicate aggregation, we flagged these compounds as potentially problematic. We identified 14 fragments that bound to TNKS2 ARC5 by both relaxation-edited and waterLOGSY methods (0.78% hit rate). We next tested whether binding of these fragments occurred competitively with the 3BP2 TBM peptide, and also if they bound to TNKS2 ARC4, as competition with peptide binders at various different ARCs will be a prerequisite for an efficient substrate binding antagonist. Three fragments (1, 2, 3) bound to both TNKS2 ARC4 and ARC5 and were competitive with the TBM peptide (0.16% hit rate) (Fig. 2E). Three further fragments also bound to both ARCs, but were not TBM competitive by NMR.
Fragments were dispensed in duplicate into a 384-well plate (250 nL, 100 mM stock in DMSO). Wells were backfilled with DMSO (2.25 μL). Tankyrase ARC protein (47.5 μL in 25 mM HEPES, pH 7.5, 100 mM NaCl, 2 mM TCEP, 10% D2O; 20 μM final protein concentration in the assay) was added to the ‘protein’ samples; buffer only (47.5 μL) was added to the ‘compound-only’ samples. Solutions were transferred to 1.7 mm NMR tubes using a Gilson liquid handling system. ^1H NMR spectra were recorded, with the DMSO and water signals dampened. A relaxation spin filter was applied at 400 ms[65]. Data were processed using Bruker Topspin 3.14. Lines were broadened with LB = 3.0, and the baseline was corrected between 6.0–10.0 ppm. The average integral for all peaks between 6.0–10.0 ppm was calculated, and the difference between compound-only and compound-plus-protein samples was compared. A reduction in signal integrals of ≥15% was classified as a hit. For competitive experiments, 3BP2 16-mer peptide (100 μM) was added, and the spectra were recorded and processed as above. The variability in signal reduction in the relaxation-edited experiment was previously determined as approximately ± 10% (Liu et al., unpublished observations).

TNKS2 ARC1 (20–178) = biological target: T2, TNKS2 ARC1 (20–178) (Homo sapiens, UniProt Q9H2K2); test: T2 relaxation-edited ligand-observed NMR assay
T2 construct: TNKS2 ARC1 (20–178); His6-GST; made in house; host or cells: E. coli
From the text: The anticipated functional redundancy between ARCs and the existence of two tankyrase paralogues will require efficient substrate binding antagonists to ideally bind all TBM-binding ARCs of both TNKS and TNKS2. […] We tested binding of compound 9 to all TNKS and TNKS2 ARCs using the relaxation-edited NMR assay (Fig. 4E, Table 3). Compound 9 bound all ARCs, with the exception of TNKS2 ARC1. Given the invariant residue infrastructure of the peptide-binding pocket in ARC1 of TNKS and TNKS2, this observation is difficult to reconcile with available structural information. […]
Fragments were dispensed in duplicate into a 384-well plate (250 nL, 100 mM stock in DMSO). […] Solutions were transferred to 1.7 mm NMR tubes using a Gilson liquid handling system. ^1H NMR spectra were recorded, with the DMSO and water signals dampened. […] The average integral for all peaks between 6.0–10.0 ppm was calculated, and the difference between compound-only and compound-plus-protein samples was compared. […] For competitive experiments, 3BP2 16-mer peptide (100 μM) was added, and the spectra were recorded and processed as above. The variability in signal reduction in the relaxation-edited experiment was previously determined as approximately ± 10% (Liu et al., unpublished observations).

[1] = biological target: T3, TNKS2 ARC4 aromatic glycine sandwich (YY536/569AA) (Homo sapiens, UniProt Q9H2K2, Y536A/Y569A); test: WaterLOGSY NMR with mutant ARC
T3 construct: TNKS2 ARC4 (488–649); His6-GST; made in house; host or cells: E. coli BL21-CodonPlus (DE3)-RIL
From the text: (§1) We used three previously designed TNKS2 ARC4 mutant variants[4] to explore potential binding determinants for fragment 9. A WFE591/593/598AAA triple-mutation abrogates three key residues in the “arginine cradle”; YY536/569AA truncates two tyrosine residues that form the “glycine sandwich”, and L560W introduces a bulky residue into the “central patch” that sterically clashes with the TBM peptide (see Fig. 5A,B for locations of the mutated residues). We tested binding of compound 9 to the wild-type and mutant ARCs by ligand-observed NMR, using the relaxation-edited assay (Fig. 5C, Table 4). […] Binding was impaired but not abolished for the “central patch” mutant variant (L560W).
(§2) Fragments were dispensed in duplicate into a 384-well plate (250 nL, 100 mM stock in DMSO). Wells were backfilled with DMSO (2.25 μL). Tankyrase ARC protein (47.5 μL in 25 mM HEPES-NaOH pH7.5, 100 mM NaCl, 2 mM TCEP, 10% D2O; 20 μM final protein concentration in the assay) was added to the samples containing protein; buffer only (47.5 μL) was added to the compound-only samples. Solutions were transferred to 1.7 mm NMR tubes using a Gilson liquid handling system. ^1H NMR spectra were recorded, with the DMSO signal dampened. The bulk water signal at 4.7 ppm was selectively inverted. Data were processed using Bruker Topspin 3.14[66].

[2] = biological target: T4, TNKS2 ARC4 central patch (L560W) (Homo sapiens, UniProt Q9H2K2, L560W); test: WaterLOGSY NMR with mutant ARC
T4 construct: TNKS2 ARC4 (488–649); His6-GST; made in house; host or cells: E. coli BL21-CodonPlus (DE3)-RIL
From the text: as §1, §2

[3] = biological target: T5, TNKS2 ARC4 arginine cradle (WFE591/593/598AAA) (Homo sapiens, UniProt Q9H2K2, E598A/F593A/W591A); test: WaterLOGSY NMR with mutant ARC
T5 construct: The cell was filled with TNKS2 ARC4 (488–649); His6-GST; made in house; host or cells: E. coli
From the text: as §1, §2

SMILES	binding to TNKS2 ARC5 by ligand-observed NMR, in words (TNKS2 ARC5; relaxation-edited and waterLOGSY)	competition with the 3BP2 TBM peptide by relaxation-edited NMR (TNKS2 ARC5; ARC used for competition not given)	T2 relaxation-edited: reduction of signal integrals (TNKS2 ARC1 (20–178)) [%]	waterLOGSY [1]	waterLOGSY [2]	waterLOGSY [3]
O=C(NCc1ccco1)c1ccc(F)cc1 [compound 3]	bound	competitive				
O=C(NCc1ccco1)c1ccc2nccnc2c1 [compound 9]			0	positive NOE	positive NOE	negative NOE
